Results reported in patent US20220387365A1, “TUCARESOL DERIVATIVES AND USES THEREOF” (BeyondSpring Pharmaceuticals, Inc., priority 2019, published 2022).

Key:
[1] = Intravenous and oral dosing pharmacokinetic screen, plasma concentration by LC/MS/MS; parameters: species or system C57BL/6 mice; settings: in vivo; for concentration at 0.083 h / concentration at 0.25 h / concentration at 0.5 h / concentration at 2 h / concentration at 4 h / concentration at 1 h / concentration at 8 h / concentration at 24 h: B02 concentration
Method: (§1) Tucaresol, Compound B02, Compound C01, Compound C02-1, and Compound C02 were dosed once, by IV bolus (3 mg/kg in 20% hydroxyprophyl-13-cyclodextrin with 1 eq NaOH) or PO (10 mg/kg in 1% carboxymethylcellulose/0.1% tween-80 in water), to non-fasted male C57BL/6 mice. Animals were bled from the dorsal metatarsal vein (from the heart for 24 hour time point) for K2-EDTA plasma 0.083 (for IV only), 0.25, 0.5, 1, 2, 4, 8, and 24 hours after dosing. The plasma concentration of the dosed tucaresol or compound were measured by LC/MS/MS (I-CMS-8060 instrument for MS). PK parameters were then calculated with WinNonlin 6.1. For Compounds C01, CO2 and CO2-1, stability in C57BL/6 K2EDTA plasma was also evaluated at 22° C. over 1 hour by utilizing LC.

[2] = Stability in C57BL/6 K2EDTA plasma at 22° C. over 1 hour by LC; format: in vitro ADME, mouse; settings: for mouse plasma stability (in words): 22° C.; for Remaining %: mouse plasma, 2,000 ng/mL, 22°C
Method: as §1
Compounds C01 and C02-1 are unstable at 22° C.

[3] = male, C57BL/6, mouse, iv, 3 mg/kg, 0.083 h
[4] = male, C57BL/6, mouse, iv, 3 mg/kg, 0.25 h
[5] = male, C57BL/6, mouse, iv, 3 mg/kg, 0.5 h
[6] = male, C57BL/6, mouse, iv, 3 mg/kg, 1 h
[7] = male, C57BL/6, mouse, iv, 3 mg/kg, 2 h
[8] = male, C57BL/6, mouse, iv, 3 mg/kg, 4 h
[9] = male, C57BL/6, mouse, iv, 3 mg/kg, 8 h
[10] = male, C57BL/6, mouse, po, 10 mg/kg, 0.5 h
[11] = male, C57BL/6, mouse, po, 10 mg/kg, 1 h
[12] = male, C57BL/6, mouse, po, 10 mg/kg, 2 h
[13] = male, C57BL/6, mouse, po, 10 mg/kg, 4 h
[14] = male, C57BL/6, mouse, po, 10 mg/kg, 8 h
[15] = male, C57BL/6, mouse, iv, 3 mg/kg
[16] = male, C57BL/6, mouse, iv, 3 mg/kg, Mean
[17] = male, C57BL/6, mouse, po, 10 mg/kg, 0.25 h
[18] = male, C57BL/6, mouse, po, 10 mg/kg
[19] = male, C57BL/6, mouse, po, 10 mg/kg, Mean

COC(=O)c1ccc(COc2cccc(O)c2C=O)cc1 [Compound C02-1, methyl 4-((2-formyl-3-hydroxyphenoxy)methyl)benzoate]
AUClast/D ([1]; male, C57BL/6, mouse): 161 ng·h/mL per mg/kg
T1/2 ([1]; male, C57BL/6, mouse): 13.8 h
Tmax ([1]; male, C57BL/6, mouse): 3.33 h
Tucaresol concentration, Mean [1, 3]: 17.3 ng/mL
Tucaresol concentration, Mean [1, 4]: 52.9 ng/mL
Tucaresol concentration, Mean [1, 5]: 79.9 ng/mL
Tucaresol concentration, Mean [1, 6]: 60.5 ng/mL
Tucaresol concentration, Mean [1, 7]: 49.3 ng/mL
Tucaresol concentration, Mean [1, 8]: 36.0 ng/mL
Tucaresol concentration, Mean [1, 9]: 18.2 ng/mL
Tucaresol concentration, Mean [1, 10]: 15.9 ng/mL
Tucaresol concentration, Mean [1, 11]: 49.9 ng/mL
Tucaresol concentration, Mean [1, 12]: 103 ng/mL
Tucaresol concentration, Mean [1, 13]: 114 ng/mL
Tucaresol concentration, Mean [1, 14]: 83.0 ng/mL
mouse plasma stability (in words) [2]: unstable
Remaining % ([2]; 0 min): 100%
Remaining % ([2]; 5 min): 18.9%
Remaining % ([2]; 15 min): 16.7%
Remaining % ([2]; 30 min): 6.56%
Remaining % ([2]; 60 min): 2.37%

CO/N=C/c1c(O)cccc1OCc1ccc(C(=O)O)cc1 [Compound B02, (E)−4+((3-hydroxy-2-((methoxyimino)methyl)phenoxy)methyl)benzoic acid]
AUClast/D ([1]; male, C57BL/6, mouse): 24.3 ng·h/mL per mg/kg
T1/2 ([1]; male, C57BL/6, mouse): 5.49 h
Tmax ([1]; male, C57BL/6, mouse): 5.42 h
Tucaresol plasma concentration, Mean [1, 3]: 12.5 ng/mL
Tucaresol plasma concentration, Mean [1, 4]: 6.01 ng/mL
Tucaresol plasma concentration, Mean [1, 7]: 4.30 ng/mL
Tucaresol plasma concentration, Mean [1, 8]: 7.04 ng/mL
Tucaresol plasma concentration, Mean [1, 9]: 8.52 ng/mL
concentration at 0.083 h [1, 15]: 3220 ng/mL
concentration at 0.25 h [1, 15]: 1740 ng/mL
concentration at 0.5 h [1, 15]: 335 ng/mL
concentration at 2 h [1, 15]: 179 ng/mL
concentration at 4 h [1, 15]: 43.4 ng/mL
concentration at 0.083 h [1, 16]: 3050 ng/mL
concentration at 0.25 h [1, 16]: 1340 ng/mL
concentration at 0.5 h [1, 16]: 283 ng/mL
concentration at 1 h [1, 16]: 48.3 ng/mL
concentration at 2 h [1, 16]: 187 ng/mL
concentration at 4 h [1, 16]: 54 ng/mL
concentration at 8 h [1, 16]: 18 ng/mL
Tucaresol plasma concentration, Mean [1, 17]: 16.2 ng/mL
Tucaresol plasma concentration, Mean [1, 10]: 9.3 ng/mL
Tucaresol plasma concentration, Mean [1, 11]: 5.54 ng/mL
Tucaresol plasma concentration, Mean [1, 12]: 11.0 ng/mL
Tucaresol plasma concentration, Mean [1, 13]: 15.7 ng/mL
Tucaresol plasma concentration, Mean [1, 14]: 28.4 ng/mL
concentration at 0.25 h [1, 18]: 5780 ng/mL
concentration at 0.5 h [1, 18]: 3370 ng/mL
concentration at 4 h [1, 18]: 468 ng/mL
concentration at 8 h [1, 18]: 114 ng/mL
concentration at 24 h [1, 18]: 6.93 ng/mL
concentration at 0.25 h [1, 19]: 4260 ng/mL
concentration at 0.5 h [1, 19]: 2650 ng/mL
concentration at 1 h [1, 19]: 674 ng/mL
concentration at 2 h [1, 19]: 478 ng/mL
concentration at 4 h [1, 19]: 412 ng/mL
concentration at 8 h [1, 19]: 152 ng/mL
concentration at 24 h [1, 19]: 10.5 ng/mL

CC(=O)Oc1cccc(OCc2ccc(C(=O)O)cc2)c1C=O [Compound C01, 4-((3-acetoxy-2-formylphenoxy)methyl)benzoic acid]
AUClast/D ([1]; male, C57BL/6, mouse): 4.24 ng·h/mL per mg/kg
F ([1]; male, C57BL/6, mouse): 0.333%
T1/2 ([1]; male, C57BL/6, mouse): 4.24 h
Tmax ([1]; male, C57BL/6, mouse): 0.333 h
Concentration, Compound B02 IV Plasma concentration-time data, Mean [1, 3]: 1021 ng/mL
Concentration, Compound B02 IV Plasma concentration-time data, Mean [1, 4]: 691 ng/mL
Concentration, Compound B02 IV Plasma concentration-time data, Mean [1, 5]: 465 ng/mL
Concentration, Compound B02 IV Plasma concentration-time data, Mean [1, 6]: 316 ng/mL
Concentration, Compound B02 IV Plasma concentration-time data, Mean [1, 7]: 201 ng/mL
Concentration, Compound B02 IV Plasma concentration-time data, Mean [1, 8]: 116 ng/mL
Concentration, Compound B02 IV Plasma concentration-time data, Mean [1, 9]: 60.9 ng/mL
tucaresol exposure in plasma (in words) ([1]; male, C57BL/6, mouse, po): significant but lower tucaresol exposure than Compound C02 dosing
Concentration, Compound B02 PO Plasma concentration-time data, Mean [1, 17]: 643 ng/mL
Concentration, Compound B02 PO Plasma concentration-time data, Mean [1, 10]: 512 ng/mL
Concentration, Compound B02 PO Plasma concentration-time data, Mean [1, 11]: 386 ng/mL
Concentration, Compound B02 PO Plasma concentration-time data, Mean [1, 12]: 302 ng/mL
Concentration, Compound B02 PO Plasma concentration-time data, Mean [1, 13]: 191 ng/mL
Concentration, Compound B02 PO Plasma concentration-time data, Mean [1, 14]: 107 ng/mL
Concentration, Compound B02 PO Plasma concentration-time data, Mean ([1]; male, C57BL/6, mouse, po, 10 mg/kg, 24 h): 7.50 ng/mL
tucaresol exposure in plasma (in words) ([1]; mouse, po): significant exposure to tucaresol in plasma
mouse plasma stability (in words) [2]: unstable
Remaining % ([2]; 0 min): 100%
Remaining % ([2]; 5 min): 15.0%
Remaining % ([2]; 15 min): 1.07%
